Activity calls are given as the source filed them. The rule behind the calls is not given here. Some results are limits rather than exact numbers.

Data set [1] has as its system Human immunodeficiency virus 1. Nature of the data set: Potency index, ratio of etravirine EC50 to compound EC50 for HIV1 harboring reverse transcriptase K103N mutant infected in human MT4 cells. The class given is functional.
Data set [2] deals with Human immunodeficiency virus 1. Nature of the data set: Antiviral activity against HIV1 harboring reverse transcriptase K103N mutant infected in human MT4 cells assessed as inhibition of viral replication after 5 days by MTT assay. It counts as functional, organism-based. Conditions: Human immunodeficiency virus 1, MT4, 120 h. For orientation: Tetrazolium dyes change colour on reduction, which living cells bring about.

Data set [3] has as its system Human immunodeficiency virus 1. Nature of the data set: Potency index, ratio of etravirine EC50 to compound EC50 for HIV1 harboring reverse transcriptase Y181C mutant infected in human MT4 cells. The class given is functional.
Data set [4] has as its system Human immunodeficiency virus 1. Nature of the data set: Potency index, ratio of etravirine EC50 to compound EC50 for HIV1 harboring reverse transcriptase L100I mutant infected in human MT4 cells. It counts as functional.
The test system of data set [5] is Human immunodeficiency virus 2. Nature of the data set: Antiviral activity against HIV2 ROD infected in human MT4 cells assessed as inhibition of virus-induced cytopathic effect after 5 days by MTT assay. It counts as functional, organism-based. The settings on record: ISOLATE ROD. (In general: Damage to the host cells serves as the signal in cytopathic effect assays.)

In data set [6] the test system is Human immunodeficiency virus 1. Nature of the data set: Antiviral activity against HIV1 RES056 harboring reverse transcriptase K103N/Y181C double mutant infected in human MT4 cells assessed as inhibition of viral replication after 5 days by MTT assay. The class given is functional, organism-based. Conditions: Human immunodeficiency virus 1, RES056, MT4, 120 h.
Data set [7] has as its system Human immunodeficiency virus 1. Nature of the data set: Antiviral activity against HIV1 harboring reverse transcriptase Y188L mutant infected in human MT4 cells assessed as inhibition of viral replication after 5 days by MTT assay. It counts as functional, organism-based. Conditions: Human immunodeficiency virus 1, MT4, 120 h.
The subject of data set [8] is Human immunodeficiency virus 1. Nature of the data set: Antiviral activity against HIV1 harboring reverse transcriptase F227L/V106A double mutant infected in human MT4 cells assessed as inhibition of viral replication after 5 days by MTT assay. It counts as functional, organism-based. Conditions: Human immunodeficiency virus 1, MT4, 120 h.
Data set [9] relates to Human immunodeficiency virus 1. Nature of the data set: Antiviral activity against HIV1 harboring reverse transcriptase Y181C mutant infected in human MT4 cells assessed as inhibition of viral replication after 5 days by MTT assay. The class given is functional, organism-based. The settings on record: Human immunodeficiency virus 1, MT4, 120 h.
Data set [10] has as its target Human immunodeficiency virus type 1 reverse transcriptase (Human immunodeficiency virus 1, UniProt Q72547). Nature of the data set: Inhibition of recombinant wild type HIV1 reverse transcriptase assessed as decrease in biotin-dUTP incorporation using DIG-labeled dUTP/biotin-labeled dUTP and dTTP as template and viral nucleotides after 1 hr by ELISA. In general terms: ELISA stands for enzyme-linked immunosorbent assay.

Data set [11] deals with Human immunodeficiency virus 1. Nature of the data set: Antiviral activity against wild type HIV1 3B infected in human MT4 cells assessed as inhibition of virus-induced cytopathic effect after 5 days by MTT assay. The class given is functional, organism-based. The settings on record: Human immunodeficiency virus 1, 3B, MT4, 120 h.
A short description of data set [12]: Selectivity index, ratio of CC50 for human MT4 cells to EC50 for wild type HIV1 3B. The class given is toxicity. The settings on record: read-out: Ratio CC50/EC50.
Data set [13] is described as follows: Cytotoxicity against human MT4 cells assessed as decrease in cell viability after 5 days by MTT assay. It counts as cell-based.
The subject of data set [14] is Human immunodeficiency virus 1. Nature of the data set: Potency index, ratio of etravirine EC50 to compound EC50 for wild type HIV1 3B infected in human MT4 cells. It counts as functional.
Data set [15] concerns Human immunodeficiency virus 1. Nature of the data set: Antiviral activity against HIV1 harboring reverse transcriptase E138K mutant infected in human MT4 cells assessed as inhibition of viral replication after 5 days by MTT assay. It counts as functional, organism-based. The settings on record: Human immunodeficiency virus 1, MT4, 120 h.
Data set [16] relates to Human immunodeficiency virus 1. Nature of the data set: Antiviral activity against HIV1 harboring reverse transcriptase L100I mutant infected in human MT4 cells assessed as inhibition of viral replication after 5 days by MTT assay. It counts as functional, organism-based. The settings on record: Human immunodeficiency virus 1, MT4, 120 h.
The test system of data set [17] is Human immunodeficiency virus 1. Nature of the data set: Potency index, ratio of etravirine EC50 to compound EC50 for HIV1 harboring reverse transcriptase Y188L mutant infected in human MT4 cells. It counts as functional.
The subject of data set [18] is Human immunodeficiency virus 1. Nature of the data set: Potency index, ratio of etravirine EC50 to compound EC50 for HIV1 harboring reverse transcriptase E138K mutant infected in human MT4 cells. The class given is functional.

As to `Cc1cc(C#N)cc(C)c1Oc1nc(Nc2ccc(C#N)cc2)ncc1SCC(=O)NCCCN1CCOCC1`, the “Ratio EC50” value in [1] is recorded as 1.5 - 3; in data set [3] it was 1.5 - 3; in data set [4], 1.5 - 3; in data set [14], 1.5; in data set [17], 1.5 - 3; in data set [18], 1.5 - 3. Besides, the EC50 (commonly the concentration that produces a half-maximal response) is 1.4 nM in [2]; over 100 nM in data set [6]; 16.2 nM in [7]; over 100 nM in [8]; 11.6 nM in data set [9]; 2.6 nM in data set [11]. The figures for the 50% effective concentration (EC50) in data set [15] and in data set [16] were 6 nM and 6.5 nM, respectively. Moreover, in data set [5], the inhibition result was “inactive”. In [10], the IC50 (commonly the concentration that inhibits the measured activity by half) was in the range of 84 to 86 nM. Besides, the selectivity ratio in data set [12] is 10000. Also, in [13], the CC50 (commonly the concentration giving 50% cytotoxicity) at 120 h stood at 27200 nM.

Source of the values: ChEMBL document CHEMBL4251736, “Discovery of Novel Diarylpyrimidine Derivatives as Potent HIV-1 NNRTIs Targeting the "NNRTI Adjacent" Binding Site” (ACS Med Chem Lett, 2018).
